Laboratory results: PMC5392334, “Discovery and characterization of a novel irreversible EGFR mutants selective and potent kinase inhibitor CHMFL-EGFR-26 with a distinct binding mode” (Oncotarget, 2017)

How the values were obtained:
YANK2 = target: T1, YANK2 (Homo sapiens, UniProt Q9NY57); assay: KinomeScan; type: binding; details: read-out: % control
T1 construct: purchased DiscoveRx KINOMEscan

MARK1 = target: T2, MARK1 (Homo sapiens, UniProt Q9P0L2); assay: KinomeScan; type: binding; details: read-out: % control
T2 construct: purchased DiscoveRx KINOMEscan
T2 sequence (Q9P0L2 whole entry): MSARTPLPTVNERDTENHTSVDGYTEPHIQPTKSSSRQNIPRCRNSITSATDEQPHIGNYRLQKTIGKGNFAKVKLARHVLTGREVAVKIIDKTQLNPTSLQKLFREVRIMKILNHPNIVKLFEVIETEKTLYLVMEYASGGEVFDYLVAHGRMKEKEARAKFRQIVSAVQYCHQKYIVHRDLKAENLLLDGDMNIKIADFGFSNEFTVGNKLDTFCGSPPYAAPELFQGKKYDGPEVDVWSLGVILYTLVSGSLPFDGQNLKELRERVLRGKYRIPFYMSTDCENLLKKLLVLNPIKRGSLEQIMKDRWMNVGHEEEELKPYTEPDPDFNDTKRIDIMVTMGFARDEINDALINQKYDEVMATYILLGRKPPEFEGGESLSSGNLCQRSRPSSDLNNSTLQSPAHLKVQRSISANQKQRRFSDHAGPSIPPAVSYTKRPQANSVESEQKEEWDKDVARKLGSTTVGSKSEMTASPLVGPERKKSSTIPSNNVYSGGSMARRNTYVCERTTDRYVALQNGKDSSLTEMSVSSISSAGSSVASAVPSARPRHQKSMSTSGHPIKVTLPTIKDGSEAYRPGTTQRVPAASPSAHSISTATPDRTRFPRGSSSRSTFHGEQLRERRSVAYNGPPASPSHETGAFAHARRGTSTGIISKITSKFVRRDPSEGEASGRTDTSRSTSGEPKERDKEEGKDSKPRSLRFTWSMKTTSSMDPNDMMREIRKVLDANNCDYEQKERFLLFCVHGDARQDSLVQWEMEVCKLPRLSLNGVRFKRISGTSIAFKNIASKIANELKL

PRKR = target: T3, PRKR (Homo sapiens, UniProt P19525); assay: KinomeScan; type: binding; details: read-out: % control
T3 construct: purchased DiscoveRx KINOMEscan
T3 sequence (P19525 whole entry): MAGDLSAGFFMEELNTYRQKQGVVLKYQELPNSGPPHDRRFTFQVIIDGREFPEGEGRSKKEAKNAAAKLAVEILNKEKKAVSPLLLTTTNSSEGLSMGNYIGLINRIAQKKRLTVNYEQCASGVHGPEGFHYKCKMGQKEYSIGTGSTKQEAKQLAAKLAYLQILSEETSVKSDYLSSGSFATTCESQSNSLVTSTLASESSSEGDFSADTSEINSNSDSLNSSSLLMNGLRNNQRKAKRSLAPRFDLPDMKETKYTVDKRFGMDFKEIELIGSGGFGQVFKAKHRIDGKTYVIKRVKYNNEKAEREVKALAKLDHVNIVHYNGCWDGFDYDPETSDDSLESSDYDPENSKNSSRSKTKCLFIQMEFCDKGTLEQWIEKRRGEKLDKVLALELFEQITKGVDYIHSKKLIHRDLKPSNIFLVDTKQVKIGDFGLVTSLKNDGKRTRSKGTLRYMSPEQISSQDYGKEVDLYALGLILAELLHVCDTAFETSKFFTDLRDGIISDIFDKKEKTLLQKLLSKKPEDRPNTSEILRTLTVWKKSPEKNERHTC

[1] = system: BaF3-TEL-EGFR-L858R-C797S; assay: Anti-proliferation, BaF3 isogenic cell lines (CellTiter-Glo); type: cell-based; details: Mus musculus, 72 hours, triplet testing
EPHB4 = target: T4, EPHB4 (Homo sapiens, UniProt P54760); assay: KinomeScan; type: binding; details: read-out: % control
T4 construct: purchased DiscoveRx KINOMEscan
T4 sequence (P54760 16-987): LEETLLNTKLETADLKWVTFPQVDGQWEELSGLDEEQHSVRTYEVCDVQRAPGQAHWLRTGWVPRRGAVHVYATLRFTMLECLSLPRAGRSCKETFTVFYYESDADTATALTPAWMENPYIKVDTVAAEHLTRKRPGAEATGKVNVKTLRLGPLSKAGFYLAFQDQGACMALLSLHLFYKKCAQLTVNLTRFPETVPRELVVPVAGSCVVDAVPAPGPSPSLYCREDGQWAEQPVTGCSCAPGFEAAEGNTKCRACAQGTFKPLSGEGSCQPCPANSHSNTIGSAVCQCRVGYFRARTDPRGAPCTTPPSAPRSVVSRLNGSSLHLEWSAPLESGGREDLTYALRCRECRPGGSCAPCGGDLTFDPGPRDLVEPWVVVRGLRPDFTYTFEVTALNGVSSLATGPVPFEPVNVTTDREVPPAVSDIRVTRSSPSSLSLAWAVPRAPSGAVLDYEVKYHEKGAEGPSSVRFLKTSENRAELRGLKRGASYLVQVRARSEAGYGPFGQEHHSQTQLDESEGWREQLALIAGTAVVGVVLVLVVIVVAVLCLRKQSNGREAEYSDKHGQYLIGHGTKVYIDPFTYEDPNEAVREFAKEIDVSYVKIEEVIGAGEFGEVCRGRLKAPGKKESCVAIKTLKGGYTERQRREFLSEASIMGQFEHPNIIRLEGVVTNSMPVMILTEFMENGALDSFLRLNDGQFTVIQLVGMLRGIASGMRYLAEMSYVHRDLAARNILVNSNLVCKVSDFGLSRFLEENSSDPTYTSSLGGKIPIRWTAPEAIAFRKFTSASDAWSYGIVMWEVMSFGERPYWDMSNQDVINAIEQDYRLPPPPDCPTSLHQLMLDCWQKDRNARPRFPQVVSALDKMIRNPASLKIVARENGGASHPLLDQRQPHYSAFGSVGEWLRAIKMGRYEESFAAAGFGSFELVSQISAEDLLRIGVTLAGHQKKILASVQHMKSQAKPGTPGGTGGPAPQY

[2] = target: T5, ABL1(Q252H)-phosphorylated (Homo sapiens, UniProt P00519, Q252H); assay: KinomeScan; type: binding; details: read-out: % control
T5 construct: purchased DiscoveRx KINOMEscan

STK33 = target: T6, STK33 (Homo sapiens, UniProt Q9BYT3); assay: KinomeScan; type: binding; details: read-out: % control
T6 construct: purchased DiscoveRx KINOMEscan

[3] = system: phosphorylation of STAT3 in HCC827 cells; assay: Signaling pathway examination (immunoblotting); type: cell-based; details: Homo sapiens, 4 hours
Text: We next examined the effects of CHMFL-EGFR-26 on EGFR mediated signaling pathways in NSCLC cell lines with different EGFR mutants. […] As expected, in the EGFR wt expressing NCSCL cell lines A549 and H1355, only autophosphorylation of EGFR was affected and none of the downstream mediators was inhibited.
Cells were then collected and lysed. Phospho-EGF Receptor, Phospho-EGF Receptor (Tyr1068), Stat3, Phospho-Stat3 (Tyr705), AKT, Phospho-AKT (Ser473), Phospho-AKT (Thr308), p44/42 MAPK (Erk1/2), Phospho-p44/42 MAPK (Erk1/2) (Thr202/ Tyr204), p70 S6 Kinase, Phospho-p70 S6 Kinase (Thr389), eIF4E, Phospho-eIF4E (Ser209), 4E-BP1, Phospho-4E-BP1 (Thr37/46) antibody (Cell Signaling Technology) were used for immunoblotting.

PIK3CA(Q546K) = target: T7, PIK3CA(Q546K) (Homo sapiens, UniProt P42336, Q546K); assay: KinomeScan; type: binding; details: read-out: % control
T7 construct: purchased DiscoveRx KINOMEscan

MAP4K5 = target: T8, MAP4K5 (Homo sapiens, UniProt Q9Y4K4); assay: KinomeScan; type: binding; details: read-out: % control
T8 construct: purchased DiscoveRx KINOMEscan

STK16 = target: T9, STK16 (Homo sapiens, UniProt O75716); assay: KinomeScan; type: binding; details: read-out: % control
T9 construct: purchased DiscoveRx KINOMEscan
T9 sequence (O75716 whole entry): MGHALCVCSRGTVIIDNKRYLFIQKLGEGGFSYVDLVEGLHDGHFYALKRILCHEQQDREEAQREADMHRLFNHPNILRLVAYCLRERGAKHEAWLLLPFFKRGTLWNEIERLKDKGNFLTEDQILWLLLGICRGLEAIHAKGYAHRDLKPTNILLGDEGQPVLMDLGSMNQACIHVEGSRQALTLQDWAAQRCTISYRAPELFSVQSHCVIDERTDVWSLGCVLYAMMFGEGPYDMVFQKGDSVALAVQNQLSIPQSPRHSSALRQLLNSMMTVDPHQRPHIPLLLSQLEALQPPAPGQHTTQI

CAMKK1 = target: T10, CAMKK1 (Homo sapiens, UniProt Q8N5S9); assay: KinomeScan; type: binding; details: read-out: % control
T10 construct: purchased DiscoveRx KINOMEscan
T10 sequence (Q8N5S9 whole entry): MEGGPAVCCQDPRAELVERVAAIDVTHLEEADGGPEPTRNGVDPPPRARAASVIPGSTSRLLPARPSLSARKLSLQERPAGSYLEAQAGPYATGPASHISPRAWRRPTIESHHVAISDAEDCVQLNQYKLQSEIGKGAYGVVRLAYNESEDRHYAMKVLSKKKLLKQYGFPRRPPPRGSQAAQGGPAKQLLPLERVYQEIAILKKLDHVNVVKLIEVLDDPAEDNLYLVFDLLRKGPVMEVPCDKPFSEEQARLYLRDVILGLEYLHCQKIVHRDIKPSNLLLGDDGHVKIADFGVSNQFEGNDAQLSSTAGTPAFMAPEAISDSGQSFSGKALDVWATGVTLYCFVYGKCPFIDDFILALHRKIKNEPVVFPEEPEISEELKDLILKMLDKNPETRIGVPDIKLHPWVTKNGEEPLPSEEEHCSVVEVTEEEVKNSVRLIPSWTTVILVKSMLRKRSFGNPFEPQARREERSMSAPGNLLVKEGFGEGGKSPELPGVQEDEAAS

[4] = system: NSCLC cell lines (H1975, HCC827, PC9, H3255; EGFR wt lines); assay: Apoptosis effect examination (Caspase-3 and PARP cleavage); type: cell-based, human
Text: We then examined CHMFL-EGFR-26's effect on cell cycle progression and apoptosis.
Cells were then washed in PBS and lysed in cell lysis buffer. PARP, Caspase-3, GAPDH antibodies were used for immunoblotting.

ERN1 = target: T11, ERN1 (Homo sapiens, UniProt O75460); assay: KinomeScan; type: binding; details: read-out: % control
T11 construct: purchased DiscoveRx KINOMEscan

CTK = target: T12, CTK (Homo sapiens, UniProt P42679); assay: KinomeScan; type: binding; details: read-out: % control
T12 construct: purchased DiscoveRx KINOMEscan

SRMS = target: T13, SRMS (Homo sapiens, UniProt Q9H3Y6); assay: KinomeScan; type: binding; details: read-out: % control
T13 construct: purchased DiscoveRx KINOMEscan

MERTK = target: T14, MERTK (Homo sapiens, UniProt Q12866); assay: KinomeScan; type: binding; details: read-out: % control
T14 construct: purchased DiscoveRx KINOMEscan
T14 sequence (Q12866 21-999): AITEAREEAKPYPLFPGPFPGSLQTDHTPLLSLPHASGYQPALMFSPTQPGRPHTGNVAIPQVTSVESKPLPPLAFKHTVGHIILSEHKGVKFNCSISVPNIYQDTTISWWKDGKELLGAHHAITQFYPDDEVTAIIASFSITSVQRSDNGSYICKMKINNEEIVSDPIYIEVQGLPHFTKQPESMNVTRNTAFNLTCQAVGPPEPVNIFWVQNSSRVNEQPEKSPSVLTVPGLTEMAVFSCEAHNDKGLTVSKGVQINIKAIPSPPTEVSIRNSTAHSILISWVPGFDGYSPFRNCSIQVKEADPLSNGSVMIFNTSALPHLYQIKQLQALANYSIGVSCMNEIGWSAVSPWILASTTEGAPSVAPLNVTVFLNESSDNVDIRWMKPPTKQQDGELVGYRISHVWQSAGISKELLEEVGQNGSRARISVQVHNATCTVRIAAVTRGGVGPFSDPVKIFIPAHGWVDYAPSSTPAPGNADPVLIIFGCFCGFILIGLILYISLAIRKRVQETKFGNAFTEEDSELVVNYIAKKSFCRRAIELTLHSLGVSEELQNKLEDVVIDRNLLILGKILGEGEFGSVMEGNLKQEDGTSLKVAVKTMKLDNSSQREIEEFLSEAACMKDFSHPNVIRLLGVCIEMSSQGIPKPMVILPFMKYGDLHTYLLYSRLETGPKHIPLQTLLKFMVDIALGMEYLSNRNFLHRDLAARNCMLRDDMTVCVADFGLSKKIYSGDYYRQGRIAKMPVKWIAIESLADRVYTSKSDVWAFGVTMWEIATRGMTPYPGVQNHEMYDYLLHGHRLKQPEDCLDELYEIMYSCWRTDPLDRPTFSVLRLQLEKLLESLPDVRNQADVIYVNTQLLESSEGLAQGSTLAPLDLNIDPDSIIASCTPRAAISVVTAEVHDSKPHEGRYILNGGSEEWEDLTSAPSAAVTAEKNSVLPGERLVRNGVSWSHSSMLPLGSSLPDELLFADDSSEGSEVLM

MST4 = target: T15, MST4 (Homo sapiens, UniProt Q9P289); assay: KinomeScan; type: binding; details: read-out: % control
T15 construct: purchased DiscoveRx KINOMEscan
T15 sequence (Q9P289 whole entry): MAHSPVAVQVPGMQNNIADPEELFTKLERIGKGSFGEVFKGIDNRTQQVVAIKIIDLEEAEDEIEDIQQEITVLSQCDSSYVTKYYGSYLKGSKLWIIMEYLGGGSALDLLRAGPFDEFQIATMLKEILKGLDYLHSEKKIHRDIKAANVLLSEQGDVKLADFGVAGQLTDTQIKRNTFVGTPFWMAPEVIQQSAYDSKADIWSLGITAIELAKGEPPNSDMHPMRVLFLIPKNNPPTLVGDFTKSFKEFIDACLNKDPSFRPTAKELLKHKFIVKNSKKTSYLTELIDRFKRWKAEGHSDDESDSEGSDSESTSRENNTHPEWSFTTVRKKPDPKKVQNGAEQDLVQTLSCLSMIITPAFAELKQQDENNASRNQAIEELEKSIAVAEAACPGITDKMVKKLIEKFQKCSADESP

PC9 tumor xenografts = assay: PC9 cell inoculated xenograft mouse model; type: in vivo, mice; details: 21-day treatment
Experimental: Figure 5 Anti-tumor efficacy of CHMFL-EGFR-26 in PC9 cell inoculated xenograft mouse mode Female nu/nu mice bearing established PC9 tumor xenografts were treated with CHMFL-EGFR-26 at 25.0 and 50.0 mg/kg/d, or vehicle. Daily oral administration was initiated when PC9 tumors had reached a size of 200 to 400 mm^3. Each group contained 7 or 8 animals. Data, mean ± SEM. A. Body weight and B. Tumor size measurements from PC9 xenograft mice after CHMFL-EGFR-26 administration. Initial body weight and tumor size were set as 100%. C. Representative photographs of tumors in each group after 25.0 or 50.0 mg/kg/d CHMFL-EGFR-26 or vehicle treatment. D. Comparison of the final tumor weight in each group after 21-day treatment period. Numbers in columns indicate the mean tumor weight in each group. E. Representative micrographs of hematoxylin and eosin (HE), Ki-67, and TUNEL staining of tumor tissues with CHMFL-EGFR-26 treatment compared to the vehicle-treated group. […]
Five-week old female nu/nu mice were purchased from the Shanghai Experimental Center, Chinese Science Academy (Shanghai, China). […] Body weight and tumor growth was measured daily after CHMFL-EGFR-26 treatment. Tumor volumes were calculated as follows: tumor volume (mm^3)= [(W^2 × L)/2] in which width (W) is defined as the smaller of the two measurements and length (L) is defined as the larger of the two measurements.

EPHA7 = target: T16, EPHA7 (Homo sapiens, UniProt Q15375); assay: KinomeScan; type: binding; details: read-out: % control
T16 construct: purchased DiscoveRx KINOMEscan

PIK3C2G = target: T17, PIK3C2G (Homo sapiens, UniProt O75747); assay: KinomeScan; type: binding; details: read-out: % control
T17 construct: purchased DiscoveRx KINOMEscan

T1 sequence (Q9NY57 whole entry): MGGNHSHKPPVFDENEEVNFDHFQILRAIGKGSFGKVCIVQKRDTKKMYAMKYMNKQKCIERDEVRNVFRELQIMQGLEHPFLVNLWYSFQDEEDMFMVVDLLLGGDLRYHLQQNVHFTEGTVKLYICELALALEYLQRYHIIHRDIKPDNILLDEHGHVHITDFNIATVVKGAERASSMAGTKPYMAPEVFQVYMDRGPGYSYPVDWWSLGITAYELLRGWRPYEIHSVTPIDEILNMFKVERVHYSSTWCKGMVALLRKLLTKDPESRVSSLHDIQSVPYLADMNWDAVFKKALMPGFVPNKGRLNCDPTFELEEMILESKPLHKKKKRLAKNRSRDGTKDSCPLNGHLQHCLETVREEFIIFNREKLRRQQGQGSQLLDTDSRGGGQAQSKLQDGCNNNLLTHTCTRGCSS

`C=CC(=O)N1CCC[C@@H](n2nc(-c3ccc(OCc4cccc(C)n4)c(Cl)c3)c3c(N)ncnc32)C1` [CHMFL-EGFR-26] was tested, and the remaining binding at 1 µM (YANK2) was 5.8%, the remaining binding at 1 µM (MARK1) was 100% and the remaining binding at 1 µM (PRKR) was 80%. It also gave a GI50 [1] of 3.2 µM, a remaining binding at 1 µM (EPHB4) of 100% and a remaining binding at 1 µM [2] of 100%. It also gave a remaining binding at 1 µM (STK33) of 100%, an EC50 [3] of under 0.01 µM and a remaining binding at 1 µM (PIK3CA(Q546K)) of 83%. It also gave a remaining binding at 1 µM (MAP4K5) of 54%, a remaining binding at 1 µM (STK16) of 100% and a remaining binding at 1 µM (CAMKK1) of 88%. The “Caspase-3 and PARP cleavage (apoptosis)” value ([4]; EGFR wt NSCLC cell lines, 72hrs) was “no cleaved Caspase-3 and PARP detected”, the “Caspase-3 and PARP cleavage (apoptosis)” value ([4]; H1975, HCC827, PC9 and H3255, 30nM, 24hrs) was “sufficient to induce Caspase-3 and PARP cleavage” and the remaining binding at 1 µM (ERN1) was 81%. The remaining binding at 1 µM (CTK) was 95%, the remaining binding at 1 µM (SRMS) was 11% and the remaining binding at 1 µM (MERTK) was 79%. For the same molecule, the remaining binding at 1 µM (MST4) was 99%, the “Tumor weight (final, mean)” value (PC9 tumor xenografts; 25 mg/kg/d oral) was 0.93 g and the “Tumor weight (final, mean)” value (PC9 tumor xenografts; 50 mg/kg/d oral) was 0.68 g. The remaining binding at 1 µM (EPHA7) was 100% and the remaining binding at 1 µM (PIK3C2G) was 100%.
